Measured values taken from patent US20240199571A1, “THIOPHENE COMPOUND AND APPLICATION THEREOF” (MEDSHINE DISCOVERY INC., priority 2021, published 2024).
Structures can show the parent of a compound that is named as a salt.

What was measured:
[1] = Experiment 3: pharmacokinetic evaluation in CD-1 mice (IV and oral); type: in vivo; details: mouse, plasma, female CD-1 mice
Procedure, shortened: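 Male/female CD-1 mice aged 7-9 weeks, two per route, received single doses of 1 mg/kg IV or 2 mg/kg oral gavage in 10% DMSO/90% of 10% HP-β-cyclodextrin. Plasma was sampled from 0.083 (IV) or 0.25 (PO) to 24 h. Methanol-precipitated samples were measured by LC-MS/MS to derive Cmax, CL, T1/2, Vdss, AUC0-last and F.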

human LSD1 = human LSD1 (Homo sapiens (Human), UniProt O60341); test: Experiment 1A: in vitro LSD1 enzyme activity, enzyme-coupled fluorescence (HRP/Amplex Red), H3K4me peptide 20 μM (Wuhan Heyan); type: biochemical; details: histone H3K4me peptide 20 μM
Experimental: Experiment 1A: Evaluation of Enzyme Activity
Testing unit: Wuhan Heyan Biomedical Technology Co., Ltd.
The purpose of the assay was to test the in vitro inhibitory activity of the compounds against LSD1. The enzyme used in the assay was human LSD1, and the standard substrate was histone H3K4me peptide (20 μM). The activity of the compounds was determined by the enzyme-coupling fluorescent method by the combined detection of H2O2 generated after the reaction of LSD1 by horseradish peroxidase (HRP) and the fluorescent reagent Amplex Red. Starting from 10 μM, the compounds were 3-fold diluted to detect the IC50 values of the compounds at 10 concentrations. The enzyme and substrate were incubated for 30 minutes before the compound was added to the substrate to start the reaction. Fluorescence detector: EnVision, excitation wavelength: Ex/Em=530/590 nM.

NCI-H1417 cells = test: Experiment 2: inhibition of NCI-H1417 cell proliferation (CellTiter-Glo, 10 days); type: cell-based; details: Homo sapiens, 240 h, 10 days incubation
Procedure, shortened: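 Cells at 1000 per well exposed to 10-point 3-fold dilutions from 10 μM top concentration for 10 days. Viability by CellTiter-Glo luminescence; inhibition normalized to max/min controls, IC50 from four-parameter fit.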

COc1ccc(-c2sc(C(=O)N3CC[C@H](N)C3)cc2-c2ccc(C#N)c(F)c2)cc1F [Hydrochloride of compound 7]
clearance ([1]; IV 1 mg/kg, read-out: Clearance rate CL): 20.9 mL/min/kg
half-life ([1]; IV 1 mg/kg, read-out: Half life T1/2 (IV, h) (converted)): 3.74 h
Vd ([1]; IV 1 mg/kg, read-out: Volume of distribution at steady state Vdss): 6.19 L/kg
bioavailability ([1]; PO 2 mg/kg vs IV 1 mg/kg, read-out: Bioavailability F (%)): 52.4%
AUC(0-t) ([1]; PO 2 mg/kg, read-out: Area under drug-time curve AUC0-last PO): 1.89 µM·h
Cmax ([1]; single dose, oral 2 mg/kg, read-out: Peak concentration Cmax): 176 nM
IC50 (human LSD1): 0.121 µM
IC50 (NCI-H1417 cells): 0.0204 µM
